{"source": "patent US10913709B2", "about": "“STAT3 inhibitor formulation” (priority 2017, dated 2021)", "key": {"[1]": {"experiment": "Plasma stability in mouse plasma", "format": "in vitro ADME", "protocol": "An hour-by-hour analysis was then conducted, showing a marked decrease at ambient conditions (see Table 4). […] It should be noted that the time measurement for ambient is listed in hours (Table 4) compared with the time for the −20° C., which was measured in days (Table 5)."}, "[2]": {"experiment": "Stability in acetonitrile extract (post sample preparation)", "format": "physicochemical", "settings": "6 days", "protocol": "In particular, once the centrifugation was performed on the blood samples to provide the plasma samples for analysis, extraction into acetonitrile was done as quickly as possible (e.g., <1 hour)."}, "[3]": {"experiment": "Observation for toxicity and mortality in the PK study", "format": "in vivo", "protocol": "Mice were weighed within 72 hours of receipt and again on Study Day −1. Mice were observed once daily prior to day 0, and at least twice daily beginning on day 0 for 24 hours post-dose for morbidity and moribundity."}, "[4]": {"experiment": "Body weight and toxicity during the chemoprevention study", "format": "in vivo, female MMTV/Neu mice", "settings": "gavage 5 times/week, 500, 250, and 100 mg/kg BW/day, throughout the experiment"}, "Ki67 expression": {"test_system": "Ki67 expression", "experiment": "Ki67 expression in normal mammary gland, immunohistochemical analysis", "settings": "two weeks of treatment", "experimental": "Ki67 expression was assessed by immunohistochemical analysis of the normal ductal epithelium. Stained sections were scanned and quantitated using automated image analysis software."}, "[5]": {"experiment": "Aqueous solubility in the presence of various bases (Example 1)", "format": "physicochemical", "excerpt": "(§1) The resulting mixtures were examined for both solubility and stability with the results being analyzed high-performance liquid chromatography (HPLC) with UV and mass spectroscopy detection."}, "[6]": {"test_system": "DMBA-induced mammary cancer", "experiment": "Chemoprevention study of DMBA-induced mammary cancer", "text": "The negative control group received vehicle (purified water) only. In order to accelerate tumor formation, the mice were also given 7,12-dimethylbenz[a]anthracene (DMBA) by gavage 1 time/week for 4 weeks beginning at 57 days of age. The study was terminated 4 months after DMBA exposure. During the treatment period, the body weights of the mice and the appearance of palpable mammary tumors were monitored on a weekly and twice-weekly basis, respectively."}, "[7]": {"experiment": "Stability in water in the presence of various bases, HPLC with UV and MS detection (Example 1)", "format": "physicochemical", "excerpt": "as §1"}, "[8]": {"settings": "cited from earlier work"}}, "data": [{"molecule": "Cc1ccc(S(=O)(=O)OCC(=O)Nc2ccc(C(=O)O)c(O)c2)cc1", "note": "[Compound 1]", "values": [{"measurement": "recovery at 0 h", "setting": "[1]; ambient conditions, 0 hours", "value": 88.6, "unit": "%"}, {"measurement": "recovery at 1 h", "setting": "[1]; ambient conditions, 1 hour", "value": 61.2, "unit": "%"}, {"measurement": "recovery at 2 h", "setting": "[1]; ambient conditions, 2 hours", "value": 52.6, "unit": "%"}, {"measurement": "recovery at 3 h", "setting": "[1]; ambient conditions, 3 hours", "value": 28.7, "unit": "%"}, {"measurement": "recovery at 5 h", "setting": "[1]; ambient conditions, 5 hours", "value": 21.3, "unit": "%"}, {"measurement": "recovery at 6 h", "setting": "[1]; ambient conditions, 6 hours", "value": 15.8, "unit": "%"}, {"measurement": "plasma stability, daily assessment", "setting": "[1]; samples assessed daily, no free acid observed after 1 day", "value": "stability was short"}, {"measurement": "recovery at 0 days", "setting": "[1]; −20° C., 0 days", "value": 94.5, "unit": "%"}, {"measurement": "recovery at 1 days", "setting": "[1]; −20° C., 1 day", "value": 76.6, "unit": "%"}, {"measurement": "recovery at 2 days", "setting": "[1]; −20° C., 2 days", "value": 65.7, "unit": "%"}, {"measurement": "recovery at 3 days", "setting": "[1]; −20° C., 3 days", "value": 58, "unit": "%"}, {"measurement": "recovery at 6 days", "setting": "[1]; −20° C., 6 days", "value": 46.6, "unit": "%"}, {"measurement": "stability in an acetonitrile extract", "setting": "[2]", "value": "little/no degradation"}, {"measurement": "signs of toxicity post-dose", "setting": "[3]; groups A-H: IV 50 mg/kg, PO 500, 250, 125 mg/kg, observed 24 hours post-dose", "value": "None of the mice in groups A-H demonstrated signs of toxicity"}, {"measurement": "mortality", "setting": "[3]; oral or IV administration, any of the doses administered", "value": "no mortality"}, {"measurement": "weight loss or toxicity", "setting": "[4]", "value": "No weight loss or toxicity was observed"}, {"measurement": "inhibition of Ki67", "setting": "Ki67 expression; 250 mg/kg BW/day", "value": 85, "unit": "%"}, {"measurement": "inhibition of Ki67", "setting": "Ki67 expression; 500 mg/kg BW/day", "value": 83, "unit": "%"}, {"measurement": "solubility in water", "setting": "[5]; water", "value": "highly soluble in water"}, {"measurement": "effect in preventing breast cancer", "setting": "[6]; 500 mg/kg BW/day by gavage", "value": "greatest effect"}, {"measurement": "onset of DMBA-induced breast cancer", "setting": "[6]; all doses tested (500, 250, and 100 mg/kg BW/day by gavage)", "value": "able to delay the onset"}, {"measurement": "incidence, multiplicity, and weights of mammary tumors compared to the vehicle-only control", "setting": "[6]; gavage 5 times/week, 500, 250, and 100 mg/kg BW/day, DMBA-accelerated, 4 months", "value": "dose-dependent decrease"}]}, {"molecule": "Cc1ccc(S(=O)(=O)OCC(=O)Nc2ccc(C(=O)O)c(O)c2)cc1", "note": "[NSC-74859]", "values": [{"measurement": "degradation (loss of the tosylate group)", "setting": "[7]; in stronger bases, such as sodium hydroxide, in water", "value": "Degradation was much more pronounced"}, {"measurement": "time the product remained stable", "setting": "[7]; with TRIZMA, in water at room temperature, initial analysis", "value": "~8", "unit": "h"}, {"measurement": "solubility in water and ethanol", "setting": "[8]", "value": "poorly soluble in water and ethanol"}, {"measurement": "solubility", "setting": "[5]; water with 1.1 molar equivalents of TRIZMA base, aqueous buffer, thermodynamic from solid, with 1.1 molar equivalents TRIZMA (2-amino-2-(hydroxymethyl)-1,3-propanediol), pH 7 water", "value": "~60", "unit": "mg/mL"}, {"measurement": "aqueous solubility", "setting": "[5]; with 1.1 molar equivalents of base in water, all bases examined (LiOH, NaOH, K2CO3, NaHCO3, TRIZMA)", "value": "good aqueous solubility"}]}]}
